Literature values in patent publication US10052384B2, “Liquid antiseptic compositions containing iodine and a sugar and/or sugar alcohol” (3M INNOVATIVE PROPERTIES COMPANY, priority 2007, dated 2018).

Settings: 25° C.

II [elemental iodine]
Solubility in water: 0.03 wt-%
